2 molecules from PMC12526720, “Hydralazine inhibits cysteamine dioxygenase to treat preeclampsia and senesce glioblastoma” (Science Advances, 2024) can be followed below.

Counter-ions that a name gives are not always drawn.

Assay [1] has as its target T1, mouse ADO (Mus musculus, UniProt Q6PDY2).
T1 construct: endogenous
T1 sequence (Q6PDY2 1-256): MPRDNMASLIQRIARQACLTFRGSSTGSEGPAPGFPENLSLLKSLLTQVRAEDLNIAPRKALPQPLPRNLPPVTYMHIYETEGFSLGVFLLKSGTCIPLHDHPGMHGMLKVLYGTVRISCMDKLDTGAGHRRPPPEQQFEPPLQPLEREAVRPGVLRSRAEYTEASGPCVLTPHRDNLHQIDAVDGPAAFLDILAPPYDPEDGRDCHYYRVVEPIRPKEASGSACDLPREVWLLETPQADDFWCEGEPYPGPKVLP
Briefly: quantitative chemoproteomics in RAW […] and Neuro 2a cells, and in mouse heart and brain. Type of assay: cell-based.

Assay [2] has as its target T2, 2-aminoethanethiol dioxygenase (ADO) (Homo sapiens, UniProt Q96SZ5).
T2 construct: WT hADO (NP_116193.2), His6 tag cleaved with TEV
T2 sequence (Q96SZ5 1-270): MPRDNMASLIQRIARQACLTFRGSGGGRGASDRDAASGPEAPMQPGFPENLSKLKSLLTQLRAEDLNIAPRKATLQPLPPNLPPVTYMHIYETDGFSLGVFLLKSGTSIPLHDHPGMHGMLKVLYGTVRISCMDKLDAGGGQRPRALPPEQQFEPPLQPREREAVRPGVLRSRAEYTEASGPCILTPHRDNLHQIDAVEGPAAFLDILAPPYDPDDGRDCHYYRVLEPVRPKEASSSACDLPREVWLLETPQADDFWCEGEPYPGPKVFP
The assay is described as follows: O2 consumption (oxygen electrode) with purified Fe(II)•ADO, global fit; EPR of Co(II)•ADO also supports binding. The format is biochemical.

For the molecule `C#CCOCc1ccc2c(NN)nncc2c1` [HYZyne, 1-hydrazineyl-6-((prop-2-yn-1-yloxy)methyl)phthalazine hydrochloride], in assay [1], the “quantitative chemoproteomics in RAW 264.7 and Neuro 2a cells, and in mouse heart” value is “mouse ADO was also identified as a primary, high-reactivity, and high-stoichiometry target of HYZyne in both mouse cell types”.
In assay [2], `NNc1nncc2ccccc12` [HYZ, Hydralazine] gave an inhibition constant Ki of 2480 ± 420 nM.
